Laboratory results from patent EP1566447A1, “Glimepiride- and insulin-induced glycosylphosphatidylinositol-specific phospholipase C regulation” (priority 2004, dated 2005).

Columns and labels:
[1] = molecular target: T1, Pancreatic lipase (PL) (Sus scrofa, UniProt P00591); test: selectivity: pancreatic lipase assay; type: biochemical, porcine; details: 50 µM
T1 construct: crude porcine pancreatic lipase (PL); purchased Sigma/Aldrich (Deisenhofen, Germany); host or cells: porcine pancreas (crude preparation)
T1 sequence (P00591 1-450): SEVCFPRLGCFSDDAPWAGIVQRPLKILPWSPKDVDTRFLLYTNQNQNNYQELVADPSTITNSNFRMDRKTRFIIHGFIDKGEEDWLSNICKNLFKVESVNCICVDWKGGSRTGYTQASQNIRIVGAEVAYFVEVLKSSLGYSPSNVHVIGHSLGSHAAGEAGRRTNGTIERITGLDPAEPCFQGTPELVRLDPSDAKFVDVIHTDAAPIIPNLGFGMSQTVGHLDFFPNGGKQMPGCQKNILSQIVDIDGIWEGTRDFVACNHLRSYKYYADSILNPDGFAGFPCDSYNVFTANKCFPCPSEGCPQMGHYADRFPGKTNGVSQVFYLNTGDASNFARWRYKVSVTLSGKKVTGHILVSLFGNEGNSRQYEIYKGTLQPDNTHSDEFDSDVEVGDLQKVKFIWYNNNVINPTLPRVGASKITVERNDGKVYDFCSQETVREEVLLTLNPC
T1 sequence (P02703 23-112 partner): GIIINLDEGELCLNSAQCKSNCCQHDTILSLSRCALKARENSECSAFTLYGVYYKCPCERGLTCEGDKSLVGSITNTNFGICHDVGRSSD
Procedure: (§1) Hormone-sensitive lipase (HSL) and lipoprotein lipase (LPL) were measured using a radiolabeled triolein droplet emulsion as described in "Vertesy et al., (2002) Journal Antibiotics 55:480-494". Pancreatic lipase (PL) was determined by incubation of 0.25 mmol tributyrin in 2 ml of 5 mM Tris/HCl (pH 6.5), 6 mM sodium taurodeoxycholate, 150 mM NaCl, 1 mM CaCl2 with porcine PL and colipase in the same buffer using a recording pH stat (stirring at 1000 rpm at 25°C) with the pH adjusted to 6.5. PC-PLC was assayed by incubation of 0.2 ml of 10 mM dipalmitoyllecithin, 0.1 ml of 10 mM SDC and 0.1 ml of 0.03 M CaCl2 with bacterial PC-PLC (in 50 mM Tris/HCl, pH 7.5, 0.1 % BSA) for 10 min at 37°C. The reaction was terminated by addition of 0.1 ml of 50 % TCA and subsequently of 2.5 ml of […]. After centrifugation (1500xg, 15 min), 0.2-ml portions of the upper methanol/water phase (~ 1.33 ml) was removed, supplemented with 0.5 ml of 60 % HClO4, then heated at 170°C for 1 h and finally analyzed for inorganic phosphate. Mammalian PI-PLC was measured by incubation of 0.1 ml of 10 mM PI, 0.1 ml of 0.8 % sodium deoxycholate, 0.1 % BSA, 0.2 ml of 100 mM sodium borate (pH 7.5) and rat liver PI-PLC for 20 min at 37°C. The reaction was terminated and further processed as described for the PC-PLC. […] Radioactive phosphatidic acid was detected by phosphorimaging. […]

[2] = test system: cabbage PLD; test: selectivity: PLD assay; type: biochemical; details: 50 µM
Procedure: as §1

SMILES: CCCCCCCCCCCCP1(=O)O[C@@H]2[C@H](O)[C@@H](O)[C@H](O)[C@@H](O)[C@@H]2O1 (mixture of isomers) [GPI-2350, myo-inositol-1,2-cyclo-dodecylphosphonic acid]
- effect on lipase activity [1]: not significantly affected
- effect on phospholipase activity [2]: not significantly affected
